Assay results taken from US20240376163A1, “PEPTIDE FOR INHIBITING CALCINEURIN AND USE THEREOF” (Seoul National University R&DB Foundation, priority 2023, published 2024).
Where two headings read alike, the source gives them in different places. Values belong to the molecule of their own block, whether it stands above or below them.

Assays:
Jurkat T cells = test: DMOG treatment of Jurkat T cells expressing CABIN1 peptide, immunoprecipitation and Western blotting; format: cell-based
Procedure: In FIG. 6A, Jurkat T cells expressing HA-mCherry-tagged CABIN1 peptide were treated with DMOG for 12 hours in a dose-dependent manner. In FIG. 6B, Jurkat T cells expressing HA-mCherry-tagged CABIN1 peptide were treated with 500 μM DMOG over time. Each cell lysate was immunoprecipitated with HA antibodies, and CNA bound to CABIN1 peptides was detected by Western blotting. HIF-1α was used as a positive control for DMOG treatment. In FIG. 6C, HEK293T cells were transfected with GST-tagged peptides and subjected to GST pull-down assay. Hydroxyproline and O-linked glycosylation of each peptide were detected by Western blotting. NC: negative control.
(§1) Cells were lysed in IP150 buffer and immunoprecipitated Flag- and HA-tagged proteins using Anti-FLAG® M2 Affinity Gel (Sigma-Aldrich) and Pierce™ Anti-HA Agarose (Thermo Fisher Scientific), respectively. Conventional methods were used to construct the buffer and subsequent processes (Kim, H. J. et al. Nuclear Acids Res. 46, 6544-6560 (2018)). To quantify the Western blotting results, band regions were measured using ImageJ (https://imagej.nih.gov/ij/).

p38a [1] = target: T1, p38a (Homo sapiens, UniProt Q16539); test: p38 inhibitor treatment of Jurkat T cells expressing CABIN1 peptide, immunoprecipitation and Western blotting; format: cell-based; design: endogenous in cells; host or cells: Jurkat T (E6-1); details: 10 μM, 16 hours
Procedure: In FIG. 8A, Jurkat T cells expressing HA-mCherry-tagged CABIN1 peptide were treated with 40 nM PMA in a time-dependent manner. Phosphorylated threonine in peptides immunoprecipitated with HA antibody was detected with [PXpTP] antibody. […] In FIG. 8G, Jurkat T cells expressing HA-mCherry-tagged CABIN1 peptide were treated with 10 μM p38a inhibitor for 16 hours. Immunoprecipitation was performed with HA antibody and detected by Western blotting. In FIG. 8H, phosphorylated threonine and peptide-bound CNA in FIG. 8G were measured using ImageJ, and the ratio of phosphorylation and calcineurin bound to CABIN1 peptide was calculated (n=6). The values shown are mean±standard deviation. Statistical differences were determined using one-way analysis of variance. * p<0.05, ** p<0.01, *** p<0.001, CBB: Coomassie Brilliant Blue, NC: negative control.
as §1, with “Conventional methods were used to construct the buffer and subsequent processes (Kim, H. J. et al. Nuclear Acids Res. 46, 6544-6560 (2018)).” left out

CNA [2] = details: SPR, CNA 1.25-10 nM
Procedure: Biacore T200 (Cytiva) was used to capture biotin-labeled peptides on the surface of Series S Sensor Chip SA (Cytiva). […] Each cycle was performed at 25° C. with 120 seconds of contact and 240 seconds of dissociation at a flow rate of 30 μl/min. The kinetics of the interaction were analyzed using BIAvaluation 3.2 RC1 (Cytiva).

CNA [3] = details: biotin-labeled peptides
Procedure: (§7) A His-pulldown assay was performed with 0.5 ml of IP150 buffer containing 0.5 mM EDTA. His-tagged CNA and GST-tagged peptides were mixed and captured on Ni-NTA agarose beads (Qiagen, Hilden, Germany). The beads were washed three times with binding buffer, and the proteins were analyzed by Western blotting. GST-tagged peptides were pulled down using Glutathione Sepharose™ 4 Fast Flow (Cytiva, Marlborough, MA, USA), and biotin-labeled peptides were pulled down using Streptavidin Agarose Resin (Thermo Fisher Scientific).

CNA [4] = test: Ka (1/MS)
Procedure: (§2) Table printed on a drawing sheet, FIG. 7G
Head of the field: Ka (1/MS)
(§3) FIG. 7A is the sequence of the CABIN1 peptide with a threonine to valine substitution (TV). […] In FIG. 7C, a luciferase reporter assay was performed to measure NFAT transcriptional activity in Jurkat T cells expressing GST-tagged CABIN1 peptides under PMA and ionomycin treatment (n=3). […] CNA bound to the peptide and phosphorylated threonine were detected by Western blotting. In FIG. 7E, phosphorylation of the 9th threonine of the CABIN1 peptide (threonine 2154 of full-length CABIN1) was detected by LC-MS/MS in Jurkat T cells. In FIG. 7F, an in vitro pull-down assay was performed using streptavidin-coupled agarose beads. CNA bound to the biotinylated peptide was detected with a His antibody. VEET peptide was used as a negative control. In FIG. 7G, CNA binding to biotinylated CABIN1 peptide according to the presence or absence of phosphorylation of the 9th threonine was measured by SPR. CNA concentration ranges are 1.25, 2.5, 5, and 10 nM. The kinetics of the interaction were calculated using the data of the CABIN1 peptide-captured cells minus the negative control peptide-captured cell. The values shown are mean±standard deviation. RU: […], NC: negative control.
(§4) First copying reader's note: SPR binding kinetics of the peptides to CNA; each cell holds the value together with its ± deviation. […]

CNA [5] = test: Kd (1/S)
Procedure: as §2
Head of the field: Kd (1/S)
as §3, §4

CNAβ2 [6] = target: T2, CNAβ2 (Homo sapiens, UniProt P16298); test: Mammalian two-hybrid assay (GAL4 DBD-peptides, VP16 AD-CNAβ2, pG5-luc) in HEK293T cells; format: cell-based
T2 construct: expressed in transfected cells; host or cells: HEK293T
Procedure: (§5) To measure the transcriptional activity of NFAT, Jurkat T cells were cotransfected with GST-tagged peptides and NFAT-luc by electroporation. After 24 hours, the cells were pretreated with 0.5 μM FK506 for 1 hour and then treated with 40 nM PMA and 1 μM ionomycin for 8 hours. For mammalian two-hybrid assay, HEK293T cells were cotransfected with GAL4 DBD-tagged CABIN1, VIVIT, chimeric, and substituted peptides, VP16 activation domain-tagged CNAβ2, and pG5-luc (a luciferase reporter plasmid containing the GAL4 reaction promoter) for 24 hours. Harvested cells were lysed with luciferase assay lysis buffer (17 mM KH2PO4, 183 mM K2HPO4, pH 7.8, 0.2% [v/v] Triton X-100) and sonicated briefly. The luciferase activity against each cell lysate was measured using Infinite M200 (Tecan, Männedorf, and Switzerland). In addition, the expression level of the transfected protein was confirmed by Western blotting.

ERK2 = target: T3, ERK2 (Homo sapiens, UniProt P28482); test: In vitro kinase assay; format: biochemical; details: purified GST-tagged peptide
T3 construct: purchased Proqinase GmbH (Freiburg, Germany)
Procedure: (§6) Purified GST-tagged peptides were used for the in vitro kinase assay using activated recombinant kinase obtained from Proqinase GmbH (Freiburg, Germany). Kinase reactions were induced in reaction buffer (50 mM HEPES-NaOH, pH 7.5, 3 mM MgCl2, 3 mM MnCl2, 3 μM sodium orthobanadate, 1 mM dithiothreitol, 50 μM unlabeled ATP, 5 μCi 32P-γ-ATP) for 1 hour at 30° C. The reaction was stopped by the addition of 5× sample buffer, and proteins were isolated using SDS-PAGE. The gels were stained with Coomassie Brilliant Blue, dried, and developed on X-ray film.

JNK1 = target: T4, JNK1 (Homo sapiens, UniProt P45983); test: In vitro kinase assay; format: biochemical; details: purified GST-tagged peptide
T4 construct: purchased Proqinase GmbH (Freiburg, Germany)
Procedure: as §6

p38a [7] = target: T1, p38a; test: In vitro kinase assay; format: biochemical; details: purified GST-tagged peptide
Procedure: as §6

CNA [8] = test: In vitro His-pull down assay with purified protein; format: binding
Procedure: as §7

CNAβ2 [9] = target: T2, CNAβ2; test: Immunoprecipitation assay of Flag-CNAβ2 and tagged peptides in HEK293T cells; format: cell-based
Procedure: as §1

[10] = system: NFAT transcriptional activity; test: NFAT luciferase reporter assay in Jurkat T cells expressing GST-tagged peptides; format: cell-based; details: PMA and ionomycin treatment
Procedure: as §5

T2 sequence (P63098 2-170 partner limits assumed, other chains not shown): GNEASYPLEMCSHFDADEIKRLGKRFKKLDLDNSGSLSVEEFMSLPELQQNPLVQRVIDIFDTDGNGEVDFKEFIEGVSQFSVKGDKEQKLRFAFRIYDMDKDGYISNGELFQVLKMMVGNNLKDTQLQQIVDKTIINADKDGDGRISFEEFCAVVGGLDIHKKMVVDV
T1 sequence (Q16539 whole entry): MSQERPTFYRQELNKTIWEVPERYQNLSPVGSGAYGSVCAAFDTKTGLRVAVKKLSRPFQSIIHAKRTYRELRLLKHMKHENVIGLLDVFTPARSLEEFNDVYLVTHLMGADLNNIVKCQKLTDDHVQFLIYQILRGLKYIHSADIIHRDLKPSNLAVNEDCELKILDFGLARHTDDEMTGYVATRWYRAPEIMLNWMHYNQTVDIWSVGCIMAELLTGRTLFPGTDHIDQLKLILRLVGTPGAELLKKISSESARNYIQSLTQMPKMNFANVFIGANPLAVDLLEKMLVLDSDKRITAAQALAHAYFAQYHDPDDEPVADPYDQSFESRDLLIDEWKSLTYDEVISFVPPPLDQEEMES
T4 sequence (P45983 whole entry): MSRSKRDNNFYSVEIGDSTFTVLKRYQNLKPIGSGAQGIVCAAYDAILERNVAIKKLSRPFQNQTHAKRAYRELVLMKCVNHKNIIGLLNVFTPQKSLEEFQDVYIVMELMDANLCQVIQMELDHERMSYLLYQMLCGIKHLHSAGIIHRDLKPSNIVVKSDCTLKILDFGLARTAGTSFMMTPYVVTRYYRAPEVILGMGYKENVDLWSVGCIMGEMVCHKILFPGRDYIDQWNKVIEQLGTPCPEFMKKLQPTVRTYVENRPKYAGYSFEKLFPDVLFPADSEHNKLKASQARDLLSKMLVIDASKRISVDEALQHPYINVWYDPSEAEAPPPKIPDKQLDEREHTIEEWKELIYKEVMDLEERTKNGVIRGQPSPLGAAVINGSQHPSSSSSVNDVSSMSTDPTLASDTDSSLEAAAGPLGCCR
T3 sequence (P28482 whole entry): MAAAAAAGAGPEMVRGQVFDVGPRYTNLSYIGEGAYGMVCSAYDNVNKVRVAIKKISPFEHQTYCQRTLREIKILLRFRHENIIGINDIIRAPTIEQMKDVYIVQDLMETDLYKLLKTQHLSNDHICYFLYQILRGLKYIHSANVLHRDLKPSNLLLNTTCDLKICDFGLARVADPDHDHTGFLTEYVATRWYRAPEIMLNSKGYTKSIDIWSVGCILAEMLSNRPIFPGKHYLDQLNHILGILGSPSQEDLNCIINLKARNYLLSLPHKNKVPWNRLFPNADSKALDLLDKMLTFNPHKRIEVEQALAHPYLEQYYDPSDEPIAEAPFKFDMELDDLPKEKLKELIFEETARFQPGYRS

Molecule: COC(=O)CNC(=O)C(=O)OC [DMOG, dimethyloxalylglycine]
interaction between CABIN1 peptide and CNA (Jurkat T cells; DMOG dose-dependent 12 hours or 500 μM over time): had no effect on the interaction between CABIN1 peptide and CNA | HIF-1α stabilization (Jurkat T cells; positive control for DMOG treatment): stabilized HIF-1α

Molecule: Biotin-AAAMAGFPPEITVTPP {pTHR} P [phosphorylated CABIN1-L-1]
increase of binding affinity to CNA, phosphorylated vs unphosphorylated CABIN1 peptide (CNA [2]; listed as phosphorylated CABIN1 peptide): about three times | increase of binding affinity to CNA, phosphorylated vs unphosphorylated CABIN1 peptide (CNA [2]; listed as phosphorylated CABIN1 peptides): approximately three-fold | affinity for CNA (pull-down) (CNA [3]): dramatically increased the affinity for CNA

Molecule: MAGFPPEITVTPPTP [CABIN1-L-1] [listing 2 of 2 here]
binding to CNA (CNAβ2 [6]; GAL4 DBD-tagged peptides, VP16 activation domain-tagged CNA, HEK293T): significantly stronger affinity for CNA than CABIN1-14

Molecule: T6V: CABIN1 peptide with threonine 6 (threonine 2151 of full-length CABIN1) replaced with valine (PEITVVPPTP; left off: a dimerising Fc or GST; small tags and cut ends)
binding to CNA in vitro (CNA [8]): loss of interaction between the CABIN1 peptide and CNA in cells and in vitro | interaction with CNA in cells (CNAβ2 [9]): loss of interaction between the CABIN1 peptide and CNA in cells and in vitro

More lines, main results first:

binding affinity of CABIN1 peptide for CNA (p38a [1]): reducing binding affinity for CNA
Molecule: Cc1ccccc1C(=O)c1ccc(Nc2ccc(Br)cc2N)cc1Cl [EO 1428]
phosphorylation of the CABIN1 peptide (p38a [1]): significantly reduced phosphorylation of the CABIN1 peptide

dissociation rate constant (koff) (CNA [5]): 1.31e-3±6.1e-5 1/S
Molecule: MAGFPPEITVTPPTP [CABIN1-L-1] [listing 1 of 2 here]
association rate constant (kon) (CNA [4]): 2613.3±421.5 1/MS

improvement of interaction with CNA, VIVIT PPTP vs. VIVIT 10-mer (CNAβ2 [6]; C-terminus PPTP sequence): 4.76 fold | improvement of interaction with CNA, VIVIT PPTP vs. L-1-2 WT (CNAβ2 [6]; N-terminus PVIVIT): 1.93 fold | phosphorylation by ERK2 (ERK2): phosphorylate | phosphorylation by JNK1 (JNK1): phosphorylate | phosphorylation by p38a (p38a [7]): phosphorylate
Molecule: PVIVITPPTP [VIVIT PPTP]

interaction with CNA in cells (CNAβ2 [9]): loss of interaction in cell experiments
Molecule: T9V: CABIN1 peptide with threonine 9 (threonine 2154 of full-length CABIN1) replaced with valine (PEITVTPPVP; left off: a dimerising Fc or GST; small tags and cut ends)
NFAT transcriptional activity (luciferase activity) [10]: restored the transcriptional activity of NFAT inhibited by the wild-type CABIN1 peptide more efficiently than the T6V substitution
